Data taken from patent EP4653523A1, “CULTURE MEDIUM, PRODUCTION METHOD, AND CELL PREPARATION” (National University Corporation Kumamoto University, priority 2023, dated 2024).

Experiments:
EPCR High cell group [1] = assay: Ex vivo culture of mouse EPCR High cell group for 4 days, flow cytometry and cell count; type: cell-based; details: cultured for 4 days, vs control
Excerpt: The expression of c-kit and EPCR in a hematopoietic stem cell fraction (lineage: CD150+, CD48-) isolated from a mouse by using flow cytometry was checked. Among the c-kit-positive and EPCR-positive cells, a cell group of the top 30% of the EPCR-positive cells was defined as an EPCR High cell group, and a cell group of the bottom 30% of the EPCR-positive cells was defined as an EPCR Low cell group (see FIG. 1). Each cell group was transplanted into a recipient mouse, and 20 weeks later, the proportion of cells derived from the transplanted stem cells was examined in the peripheral blood (PB). In addition, at the same time, the proportion of cells derived from the transplanted stem cells was examined in the hematopoietic stem cell fraction ([…]) in the bone marrow after 20 weeks of the transplantation. The experiment was carried out twice. […] The culture medium used for the ex vivo culture of the untreated hematopoietic stem cells isolated from the mouse is a culture medium obtained by adding, to the RPMI medium, L-Alanin (4.45mg/L), Zinc Sulfate Heptahydrate (0.432mg/L), Cupric Sulfate Pentahydrate (0.0013mg/L), Ferric Nitrate Nonahydrate (0.05mg/L), Ferrous Sulfate Heptahydrate (0.417mg/L), Linoleic acid (0.042mg/L), Hypoxanthine (2.1mg/L), Putrescine + 2HCL (0.081mg/L), Thioctic Acid (0.105mg/L), Thymidine (0.365mg/L), Sodium Pyruvate (55mg/L), HEPES (1mM), a penicillin-streptomycin mixed solution (Nacalai Tesque, Inc.: 26253-84) (1/100 capacity), Insulin-Transferrin-Selenium-Ethanolamine (Thermo Fisher Scientific, Inc.: 51500056) (1/100 capacity), and AlbuMAXtm I Lipid-Rich BSA (Thermo Fisher Scientific, Inc.: 11020021) (2%). As shown in FIG. 5(A), α-ketoglutaric acid (αKG), which is an intermediate metabolite of the TCA cycle, is also produced from glutamic acid or the like, and then it is supplied to the TCA cycle. In addition, in the production of α-ketoglutaric acid from glutamic acid, two pathways of a transaminase pathway and a glutamate dehydrogenase pathway are used (see FIG. 5(B)). Therefore, the proportion of EPCR High in hematopoietic stem cells was determined in a case where the EPCR High cell group was cultured for 4 days by adding each of an inhibitor […] (30 μM) of glutamate dehydrogenase and an inhibitor aminooxyacetic acid (AOA) (50 μM) of transaminase to the culture medium, and in a case where the content of […] in the culture medium, which is the source of glutamic acid synthesis, was set to 1/100 (0.02 mM) in FIG. 5(A) (Low Neu.). […] As a result, in a case of culturing in the presence of […], the number of cells having the EPCR High phenotype is increased by about 2 times in the culture for 4 days, as compared with the culture under the normal culture conditions. […]

recipient mouse = assay: Transplantation of cultured cell groups into recipient mouse, proportion of donor-derived cells; type: in vivo
Protocol: Mouse EPCR High cells were cultured for 4 days under the normal culture conditions or in the presence of R162, and 50 cells of each of an EPCR High cell group (Control) generated under the normal culture conditions, an EPCR Low cell group (Control), and an EPCR High cell group (R162) amplified in the presence of R162 were aliquoted and then transplanted into a recipient mouse. Then, after 4 weeks and 12 weeks, the proportion of cells derived from donor cells in the peripheral blood was examined.
Further, the EPCR High cells were cultured for 4 days under the normal culture conditions and cultured for 4 days in the presence of R162, and the EPCR High cell group generated under the normal culture conditions, the EPCR Low cell group, and the EPCR High cell group (R162) amplified in the presence of R162 were each transplanted into a recipient mouse. Then, 20 weeks later, the proportion of cells derived from donor cells was examined in the peripheral blood and the hematopoietic stem cell fraction in the bone marrow (L-ESLAM (BM)).

EPCR High cell group [2] = assay: Gene expression pattern analysis by RNA-sequence with principal component analysis; type: cell-based, mouse; details: 4d gEPCR-High (R162) compared with 4d gEPCR-High, cultured for 4 days
EPCR High cell group [3] = assay: Chromatin status by open chromatin region analysis (ATAC-sequence) with principal component analysis; type: cell-based, mouse; details: 4d gEPCR-High (R162) compared with 4d gEPCR-High, cultured for 4 days
Protocol: In the same manner, the chromatin status of each cell group was analyzed by open chromatin region analysis (ATAC-sequence).

[4] = test system: Human CD34^+ bone marrow cells; assay: Culture of human CD34+ bone marrow cells for 7 days, total cell count and flow cytometry; type: cell-based
Protocol: Human CD34^+ bone marrow cells (10,000 cells) were cultured for 7 days under normal culture conditions or in the presence of a glutamate dehydrogenase inhibitor R162 (30 µM), and then the total number of cells was analyzed. Then, the proportion of hematopoietic stem cells (lineage: CD34+ CD38- CD90+ cells) was analyzed using a flow cytometer, and from the results, the number of stem cells was estimated. FIG. 13 and FIG. 14 show the results. As shown in FIG. 14(A), it has been confirmed that the total number of cells is not changed by the presence of R162 as compared with the control, whereas as shown in FIG. 14(B), the ratio of stem cells after culturing is increased by the presence of R162.
The culture medium used for the ex vivo culture of human CD34+ bone marrow cells is a culture medium obtained by adding, to the RPMI medium, L-Alanin (4.45mg/L), Zinc Sulfate Heptahydrate (0.432mg/L), Cupric Sulfate Pentahydrate (0.0013mg/L), Ferric Nitrate Nonahydrate (0.05mg/L), Ferrous Sulfate Heptahydrate (0.417mg/L), Linoleic acid (0.042mg/L), Hypoxanthine (2.1mg/L), Putrescine + 2HCL (0.081mg/L), Thioctic Acid (0.105mg/L), Thymidine (0.365mg/L), Sodium Pyruvate (55mg/L), HEPES (1mM), a penicillin-streptomycin mixed solution (Nacalai Tesque, Inc.: 26253-84) (1/100 capacity), Insulin-Transferrin-Selenium-Ethanolamine (Thermo Fisher Scientific, Inc.: 51500056) (1/100 capacity), and AlbuMAXtm I Lipid-Rich BSA (Thermo Fisher Scientific, Inc.: 11020021) (2%).

## NOCC(=O)O [AOA, aminooxyacetic acid]
EPCR High cell group [1]; AOA 50 µM
  number of cells: significantly reduced as compared with the control

## O=C(O[C@@H]1Cc2c(O)cc(O)cc2O[C@@H]1c1cc(O)c(O)c(O)c1)c1cc(O)c(O)c(O)c1 [EGCG, epigallo catechin-3-gallate]
EPCR High cell group [1]; EGCG 50 µM in culture medium
  proportion of EPCR-positive cells (phenotype of EPCR High): phenotype of EPCR High is maintained

## C=CCc1ccc2c(c1O)C(=O)c1ccccc1C2=O [R162, 2-allyl-1-hydroxy-9,10-anthraquinone]
EPCR High cell group [1]; R162 30 µM in culture medium
  proportion of EPCR High in hematopoietic stem cells: phenotype of EPCR High is maintained
EPCR High cell group [1]; R162 30 µM
  number of cells: about the same level as that of the control
Recipient mouse; 50 cells of EPCR High cell group amplified 4 days in the presence of R162, transplanted, after 4 weeks and 12 weeks
  proportion of cells derived from donor cells in the peripheral blood: high ability to reconstruct hematopoietic tissue, which is equivalent to the EPCR High cell group (Control)
Recipient mouse; EPCR High cell group amplified 4 days in the presence of R162, transplanted, 20 weeks later
  proportion of cells derived from donor cells in the peripheral blood and the hematopoietic stem cell fraction in the bone marrow (L-ESLAM (BM)): high ability to maintain the reconstructed hematopoiesis for a longer period of time
EPCR High cell group [2]
  gene expression pattern: extremely similar gene expression patterns
EPCR High cell group [3]
  chromatin status (chromatin accessibility of cis-element regions): extremely similar gene expression patterns even in the chromatin status
[4]; R162 30 µM, 10,000 cells cultured for 7 days, vs control
  total number of cells: not changed
[4]; R162 30 µM, cultured for 7 days, estimated from total cell number and proportion, vs normal culture conditions
  number of stem cells: the number of stem cells is increased
[4]; R162 30 µM, cultured for 7 days, vs control
  ratio of stem cells after culturing (CD34+ CD38- CD90+ cells): increased
